According to patent publication US6713492B1, “N-acyloxylated cycloalkyl compounds, composition containing the same and methods of use therefor” (Daiichi Radioisotope Laboratories, Ltd., priority 1998, dated 2004):

Assays:
[1] = tested on: Esterase, Porcine Liver; experiment: Test for measuring enzyme activity: hydrolysis of the sample by esterase, followed by ESR; format: in vitro ADME; conditions: 1 mM sample solution, esterase 0.2-200 U/ml in phosphate buffered saline pH7.4, one minute, oxidised to nitroxide
Protocol: Capability of enzyme (esterase) activity determination by ESR using 1-acetoxy-3-carbamoyl-2,2,5,5-tetramethylpyrrolidine was examined. Esterase (3360 U/ml, manufactured by Sigma Co., Esterase, Porcine Liver) was diluted with a phosphate buffered saline solution (pH7.4, 67 mM) to concentrations of 0.2, 2, 20, and 200 U/ml. 100 μl of each diluent was added to 100 μl of a 1 mM sample solution, and allowed to stand for one minute. Specifically, the sample was converted into a hydroxylamine derivative using the esterase. Next, 10 μl of 10 mM sodium periodide phosphate buffered saline solution was added. Specifically, the hydroxylamine derivative produced was converted into a nitroxide derivative which can be measured by ESR. Finally, this solution is suctioned into a flat cell (manufactured by Labotech Co.) to measure ESR spectrum using “JES-REIX” manufactured by JEOL Ltd after one minute.
In addition, it was confirmed that the esterase activity can be measured by using this reaction.

[2] = tested on: rat brain; experiment: Measurement of ESR-CT image of rat brain after intraperitoneal administration; format: in vivo, Wister male rats; conditions: 6 ml of 150 mM saline solution intraperitoneally, ESR-CT 20 minutes after administration
Protocol: 6 ml of 150 mM physiological saline solution of 1-acetoxy-3-carbamoyl-2,2,5,5-tetramethylpyrrolidine was intraperitoneally administered to Wister male rats (200 g, age: nine weeks) anesthesized with pentobarbital. The head of the rat was secured so that the part of the head 9 mm ahead of the external auditory meatus came to the center of the resonator. ESR-CT was measured 20 minutes after administration. The measuring conditions of ESR-CT were as follows.
(Measurement Conditions of ESR-CT)
Instrument: 700 MHz band electron spin resonance apparatus
Microwave frequency: 720 MHz
Central magnetic field: 25 mT
Magnetic field sweep width: 15 mT
Magnetic field modulation width: 0.2 mT
Magnetic field modulation frequency: 100 kHz
Magnetic field gradient: 1 mT/cm
Magnetic field gradient rotational angle: 20°
The measured black-and-white picture image is shown in FIG. 2, and a color picture image is attached as a reference figure. In FIG. 2, A is a rat brain ESR-CT image 1 mm posterior to the bregma, and B is a rat brain ESR-CT image 3 mm posterior to the bregma. FIG. 3 is a drawing describing the part of the brain indicated by the anatomical chart in FIG. 2.

Row | Compound | melting point | hydrolysis by esterase (ESR signal strength vs esterase concentration) [1] | transfer to the brain and conversion to nitroxide derivative [2]
1 | CC(=O)ON1C(C)(C)CC(C(N)=O)C1(C)C (stereo not drawn) [1-Acetoxy-3-carbamoyl-2,2,5,5-tetramethylpyrrolidine] | 150 to 151 °C | hydrolyzed by esterase in a short time and the reaction is quantitative | hydrolyzed after being transferred to the brain, and oxidized by intracerebral active oxygen and free radicals into a nitroxide derivative
2 | CCC(=O)ON1C(C)(C)CC(C(N)=O)C1(C)C (stereo not drawn) [Example 2, 1-Propionyloxy-3-carbamoyl-2,2,5,5-tetramethylpyrrolidine] | 116 to 117 °C |  | 
3 | CC1(C)CC(C(N)=O)C(C)(C)N1OC(=O)c1ccccc1 (stereo not drawn) [Example 4, 1-Benzoyloxy-3-carbamoyl-2,2,5,5-tetramethylpyrrolidine] | 199 to 201 °C |  | 
4 | CC(=O)OC1CC(C)(C)N(OC(C)=O)C(C)(C)C1 [Example 5, 1,4-Diacetoxy-2,2,6,6-tetramethylpiperidine] | 72 to 73 °C |  | 
